In US11572590B2, “Methods for evaluating tumor cell spheroids using 3D microfluidic cell culture device” (Dana-Farber Cancer Institute, Inc., priority 2017, dated 2023):
Read-outs that look alike come from different tables or passages of the source.

What was measured:
Assay in all cases: SelectScreen Kinase Profiling, single point inhibition and IC50 for off-target kinases
Assay type in all cases: biochemical
off-target kinases [1] = target: T1, off-target kinases (Homo sapiens, UniProt Q9NWZ3); conditions: IRAK4, ZLYTE, ATP Km app
T1 sequence (Q9NWZ3 1-460): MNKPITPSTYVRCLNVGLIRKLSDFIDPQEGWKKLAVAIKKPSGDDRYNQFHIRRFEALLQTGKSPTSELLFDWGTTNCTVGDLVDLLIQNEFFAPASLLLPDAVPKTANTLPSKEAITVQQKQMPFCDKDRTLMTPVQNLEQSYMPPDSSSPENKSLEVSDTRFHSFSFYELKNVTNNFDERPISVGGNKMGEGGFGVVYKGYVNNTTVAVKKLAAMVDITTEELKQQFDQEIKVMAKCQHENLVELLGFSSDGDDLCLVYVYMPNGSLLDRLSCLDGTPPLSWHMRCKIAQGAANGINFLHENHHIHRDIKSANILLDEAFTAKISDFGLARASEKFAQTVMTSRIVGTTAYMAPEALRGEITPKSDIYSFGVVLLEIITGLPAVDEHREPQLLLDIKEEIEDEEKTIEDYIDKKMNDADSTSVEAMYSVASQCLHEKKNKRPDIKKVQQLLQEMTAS

off-target kinases [2] = target: T2, off-target kinases (Homo sapiens, UniProt O00329); conditions: PIK3CD/PIK3R1 (p110 delta/p85 alpha), Adapta, ATP Km app
T2 sequence (O00329 1-1044): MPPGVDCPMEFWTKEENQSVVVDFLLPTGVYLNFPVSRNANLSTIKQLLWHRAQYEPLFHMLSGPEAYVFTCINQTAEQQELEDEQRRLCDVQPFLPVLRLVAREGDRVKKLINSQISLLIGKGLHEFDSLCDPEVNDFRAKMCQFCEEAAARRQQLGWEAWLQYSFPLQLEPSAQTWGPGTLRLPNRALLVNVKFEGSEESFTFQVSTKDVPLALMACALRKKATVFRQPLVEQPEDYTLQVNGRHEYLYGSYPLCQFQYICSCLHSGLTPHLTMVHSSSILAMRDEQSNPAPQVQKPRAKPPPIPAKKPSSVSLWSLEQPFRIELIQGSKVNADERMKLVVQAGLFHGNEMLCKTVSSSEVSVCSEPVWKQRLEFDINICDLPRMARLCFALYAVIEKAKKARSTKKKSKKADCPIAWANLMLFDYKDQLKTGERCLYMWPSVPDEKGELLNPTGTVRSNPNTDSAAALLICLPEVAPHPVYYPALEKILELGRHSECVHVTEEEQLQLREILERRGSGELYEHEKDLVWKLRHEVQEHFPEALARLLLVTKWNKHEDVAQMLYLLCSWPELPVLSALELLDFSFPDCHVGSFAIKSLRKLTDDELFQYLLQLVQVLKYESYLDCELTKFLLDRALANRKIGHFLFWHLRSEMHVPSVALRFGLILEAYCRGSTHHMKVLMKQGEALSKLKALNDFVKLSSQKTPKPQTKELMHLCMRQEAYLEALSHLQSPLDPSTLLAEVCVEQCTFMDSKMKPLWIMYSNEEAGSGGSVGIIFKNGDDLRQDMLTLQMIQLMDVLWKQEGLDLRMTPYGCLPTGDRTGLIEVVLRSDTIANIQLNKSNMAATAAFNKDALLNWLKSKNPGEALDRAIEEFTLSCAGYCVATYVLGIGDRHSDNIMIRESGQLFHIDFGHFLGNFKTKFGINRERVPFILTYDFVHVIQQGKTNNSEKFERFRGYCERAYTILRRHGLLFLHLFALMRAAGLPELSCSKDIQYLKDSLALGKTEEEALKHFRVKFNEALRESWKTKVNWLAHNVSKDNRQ

off-target kinases [3] = target: off-target kinases (Homo sapiens, UniProt Q9UQM7)
off-target kinases [4] = target: off-target kinases (Homo sapiens, UniProt P27361); conditions: MAPK3 (ERK1), ZLYTE, ATP Km app
Sequence of off-target kinases (Homo sapiens, UniProt P27361) (P27361 whole entry): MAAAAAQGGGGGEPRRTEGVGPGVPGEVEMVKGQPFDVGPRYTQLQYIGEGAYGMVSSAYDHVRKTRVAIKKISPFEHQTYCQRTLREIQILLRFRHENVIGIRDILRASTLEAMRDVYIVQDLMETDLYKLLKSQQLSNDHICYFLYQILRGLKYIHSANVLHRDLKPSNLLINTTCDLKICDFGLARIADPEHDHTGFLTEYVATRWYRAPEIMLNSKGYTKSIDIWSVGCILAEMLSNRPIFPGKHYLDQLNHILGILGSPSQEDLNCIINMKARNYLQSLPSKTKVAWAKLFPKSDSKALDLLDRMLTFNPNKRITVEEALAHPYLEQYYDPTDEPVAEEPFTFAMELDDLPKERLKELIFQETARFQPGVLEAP

Sequence of off-target kinases (Homo sapiens, UniProt Q9UQM7) (Q9UQM7 whole entry): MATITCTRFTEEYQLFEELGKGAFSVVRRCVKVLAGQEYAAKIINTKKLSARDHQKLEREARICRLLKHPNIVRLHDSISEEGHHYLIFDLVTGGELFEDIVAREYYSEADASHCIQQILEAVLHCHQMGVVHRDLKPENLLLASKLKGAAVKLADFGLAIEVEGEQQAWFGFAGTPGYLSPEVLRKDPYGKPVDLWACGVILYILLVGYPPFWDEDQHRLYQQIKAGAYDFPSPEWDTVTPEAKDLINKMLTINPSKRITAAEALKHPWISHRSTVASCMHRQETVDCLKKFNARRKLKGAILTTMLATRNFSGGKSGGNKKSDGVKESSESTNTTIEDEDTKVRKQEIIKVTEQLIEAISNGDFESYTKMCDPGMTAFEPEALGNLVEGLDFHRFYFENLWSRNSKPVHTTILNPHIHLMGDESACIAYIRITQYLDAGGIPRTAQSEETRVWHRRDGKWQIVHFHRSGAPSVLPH

## N#Cc1cc(-c2ncnc(Nc3ccc(N4CCN(C5COC5)CC4)cc3)n2)ccc1OC1CCOCC1 [Compound 1, 5-(4-((4-(4-(oxetan-3-yl)piperazin-1-yl)phenyl)amino)-1,3,5-triazin-2-yl)-2-((tetrahydro-2H-pyran-4-yl)oxy)benzonitrile]
off-target kinases [1]; read-out: % Inhibition 1
  inhibition: 5%
off-target kinases [1]; read-out: % Inhibition 2
  inhibition: 8%
off-target kinases [1]; read-out: % Inhibition Avg
  inhibition: 6%
off-target kinases [2]; read-out: % Inhibition 1
  inhibition: 22%
off-target kinases [2]; read-out: % Inhibition 2
  inhibition: 9%
off-target kinases [2]; read-out: % Inhibition Avg
  inhibition: 16%
off-target kinases [3]; CAMK2A (CaMKII alpha), ZLYTE, ATP Km app, read-out: % Inhibition 1
  inhibition: 4%
off-target kinases [3]; CAMK2A (CaMKII alpha), ZLYTE, ATP Km app, read-out: % Inhibition Avg
  inhibition: 2%
off-target kinases [3]; read-out: % Inhibition 2
  inhibition: 0%
off-target kinases [4]; read-out: % Inhibition 1
  inhibition: 3%
off-target kinases [4]; read-out: % Inhibition 2
  inhibition: -2%
off-target kinases [4]; read-out: % Inhibition Avg
  inhibition: 0%
